This note sets out measurements from paper PMC5082894 (PLoS ONE, 2016).

In test [1] the target is T1, YU2 gp120/CD4 complex binding to mAb 17b (co-receptor binding site) (Human immunodeficiency virus type 1 group M subtype B, UniProt P35961).
T1 construct: purchased Immunodiagnostics (Massachusetts, USA)
Also noted: species or system HIV-1. The conditions noted are these: Fig 4F. The protocol: (§1) For that purpose, CM4 sensorchips were activated with 50 μL of 0.2 M N-ethyl-N’-([…])-carbodiimide (EDC) and 0.05 M N-hydroxy-succimide (NHS) at 5 μL/min. Then soluble CD4 (10 μg/mL in 10 mM acetate buffer, pH 5), streptavidin (200 μg/mL in 10 mM acetate buffer, pH 4.2), mAb 17b (5 μg/mL in 10 mM acetate buffer, pH 5), MN gp120 (50 μg/ml in 5 mM maleate buffer, pH 6) or YU2 gp120 (50μg/mL in 10 mM acetate buffer, pH 4.8) were injected at 5 μL/min over one of the EDC/NHS activated flow cell until levels of 1200 (for sCD4), 700 (for mAb 17b), 3000 (for streptavidin), or 4500 (for gp120s) response units (RU) were achieved. HS (1 mM in phosphate-buffered saline) was biotinylated through its reducing end by reductive amination with 10 mM of biotin-LC-Hydrazine (Pierce) and captured on the streptavidin surface (20 μg/mL in 10 mM Hepes buffer pH 7.4 and 0.3 M NaCl) to a level of 60–80 RU as described. Surfaces were then blocked with 1M ethanolamine (pH 8.5) for 5 minutes. […]
(§2) The specific binding responses in resonance unit (RU) for MN- (A) and YU2- (B) gp120 were recorded as a function of time (s). […] The specific binding responses in resonance unit (RU) for MN- (C, E) and YU2- (D, F) gp120 were recorded as a function of time (s), and after each injection, the surface was regenerated by a short pulse of 10 mM HCl. […]

In test [2] the target is T2, MN gp120/CD4 complex binding to mAb 17b (co-receptor binding site) (Human immunodeficiency virus type 1 group M subtype B, UniProt P05877).
T2 construct: purchased Immunodiagnostics (Massachusetts, USA)
Also noted: species or system HIV-1. The conditions noted are these: Fig 4E. How it is done:
as §1, §2

Each structure is given as a SMILES string.

Regarding `Oc1cc(O)c2c(c1)O[C@@]1(c3ccc(O)c(O)c3)Oc3cc(O)c4c(c3[C@@H]2[C@H]1O)O[C@H](c1ccc(O)c(O)c1)[C@H](O)[C@H]4c1c(O)cc(O)c2c1O[C@H](c1ccc(O)c(O)c1)[C@H](O)C2` [IND02-trimer, cinnamtannin B1], the “concentration from which inhibition of YU2 gp120/CD4 binding to mAb 17b was observed” value in test [1] was no less than 50 µM. For the same compound, in test [2], the “concentration from which inhibition of MN gp120/CD4 binding to mAb 17b was observed” value is no less than 50 µM.
